This is an account of results in publication PMC8049461, “The anti-depressant effects of a novel PDE4 inhibitor derived from resveratrol” (Pharmaceutical Biology, 2021).

Series [1] relates to PDE1. In words: PDE enzymatic assay (radioactive tracer, 3H-cAMP/3H-cGMP). Type of series: biochemical. Conditions: 3H-cAMP or 3H-cGMP substrate, 24 °C, 30 min; read-out: IC50 against PDE1. Here is the method: (§1) All the enzymatic activities of PDEs were assayed by using ^3H- cyclic guanosine monophosphate (cGMP) or ^3H-cAMP as the substrate. PDEs were firstly incubated with the reaction mixture of 50 mmol/L Tris-hydrogen chloride (HCl), pH 7.8, 10 mmol/L magnesium chloride (MgCl2) and ^3H-cAMP or ^3H-cGMP (40, 000 cpm/assay) at 24 °C for 30 min. Then, the reaction was terminated by addition of zinc sulfate and barium hydroxide. Activity of test compounds was assessed by measuring the amount of ^3H-cGMP or ^3H-cAMP resulting from enzyme cleavage. The reaction product ^3H-AMP or ^3H-GMP was precipitated by adding barium sulfate, while unreacted ^3H-cAMP or ^3H-cGMP remained in the supernatant. Radioactivity in the supernatant was measured in 2.5 mL of ultima gold liquid scintillation. At least eight concentrations of inhibitors (0.05–500 μM) were used in the presence of suitable substrates for the measurement of half maximal inhibitory concentration IC50 values, which were calculated by non-linear regression. Each measurement was repeated three times.

Series [2] has as its target PDE2 (Homo sapiens, UniProt O00408). The description is as above. Type of series: biochemical. Conditions: 3H-cAMP or 3H-cGMP substrate, 24 °C, 30 min; read-out: IC50 against PDE2. The protocol: as §1
The test system of series [3] is PDE3. Described as above. Type of series: biochemical. As to conditions: 3H-cAMP or 3H-cGMP substrate, 24 °C, 30 min; read-out: IC50 against PDE3. The protocol: as §1
Series [4] deals with PDE4. The description is as above. The series is classed as biochemical. Conditions: for IC50: 3H-cAMP or 3H-cGMP substrate, 24 °C, 30 min, read-out: IC50 against PDE4. Here is the method:
as §1

For series [5], the target named is PDE5 (Homo sapiens, UniProt O76074). The series is described as above. The series is classed as biochemical. As to conditions: 3H-cAMP or 3H-cGMP substrate, 24 °C, 30 min; read-out: IC50 against PDE5. Here is the method:
as §1

Series [6] concerns chronic unpredictable stress mice. The experiment in a line: Sucrose preference test (SPT) after chronic unpredictable stress. The series is classed as in vivo, male ICR mice. Conditions: RES003 5 and 10 mg/kg (medium and large dose), once a day for 10 days, CUS mice, vs model group, p < 0.01. Here is the method:
(§2) Male ICR mice, weighing between 22–25 g, were obtained from the Animal Centre at Changzhou University. All experiments were carried out according to the National Institute of Health Guide for Care and Use of Laboratory Animals (1996) and were approved by the Institutional Animal Care and Use Committee of Changzhou University (NO. Y20180023). Fluoxetine and resveratrol were purchased from Sigma Chemical Co. (St Louis, MO). For animal behavioural tests, RES003 and rolipram were dissolved in saline containing 5% DMSO, 5% Solutol and 90% saline. The positive control drug fluoxetine was dissolved simply in saline. Mice were given intra-gastric (i.g.) administration (RES003: 2.5, 5.0 and 10 mg/kg) or intraperitoneal (i.p.) injections (fluoxetine: 5 mg/kg and rolipram: 10 mg/kg) in a volume of 10 mL/kg body weight.
(§3) The chronic unpredictable stress procedure was carried out as described previously with minor modification (Polster and Fiskum [2004]). […]
(§4) After the chronic un-predictable stress (CUS) procedure, sucrose preference test was assessed on the following day, and then forced swimming test (FST) was carried out the next day. […]
The SPT was performed according to the previous description with minor modification (Yu et al. [2013]). […] The sucrose preference was calculated as the ratio of the consumed sucrose solution to the total amount of liquid consumed.

In series [7] the test system is mice. In words: Locomotor activity (LA) test, open-field chamber. The series is classed as in vivo, male ICR mice. As to conditions: RES003 at the dose that significantly reduced immobility response, 30 min before test. The protocol: as §2
LA test was assessed using an open-field chamber according to previous procedure (Li et al. [2014]). The floor of the chamber was divided into 16 identical squares. Mice were individually placed in the centre of the chamber and allowed to acclimatize for 15 min. Their paws were contacted or disconnected the active bars which can produce random configurations. The locomotor counts of mice were measured by counting the number of line crossings in the following 10 min.

The test system of series [8] is pCREB/CREB. The experiment in a line: Western blot of pCREB/CREB in brain tissue of CUS mice. The series is classed as in vivo, male ICR mice. As to conditions: RES003 10 mg/kg, vs model group, p < 0.05. Here is the method: as §2, §3, §4
(§5) The brain tissues were dissected and stored at −80 °C until analysis after mice were sacrificed. […] The detection and quantification of specific bands were performed using a fluorescence scanner and ‘Image-Pro’ software. […]

The test system of series [9] is BDNF. In words: Western blot of BDNF expression in brain tissue of CUS mice. As to conditions: RES003 5 and 10 mg/kg, vs model group, p < 0.05 and 0.01. Type of series: in vivo, male ICR mice. The protocol:
as §2, §3, §4, §5

Series [10] deals with chronic unpredictable stress mice. In words: Forced swimming test (FST) after chronic unpredictable stress. Conditions: fluoxetine 5 mg/kg i.p., CUS mice, p < 0.05. The series is classed as in vivo, male ICR mice. The protocol:
as §2, with “Mice were given intra-gastric (i.g.) administration (RES003: 2.5, 5.0 and 10 mg/kg) or intraperitoneal (i.p.) injections (fluoxetine: 5 mg/kg and rolipram: 10 mg/kg) in a volume of 10 mL/kg body weight.” left out
as §4
According to the previous description, animals were individually placed in glass cylinders (25 cm height, 10 cm diameter) containing 10 cm depth of water at 24 ± 1 °C for 6 min, allowing for free swimming (Porsolt et al. [1978]). […] A mouse was determined to be immobile when there were only small movements necessary to keep its head above water. The immobility time was recorded during the 5 min testing period.

Chain of PDE2 (O00408 whole entry): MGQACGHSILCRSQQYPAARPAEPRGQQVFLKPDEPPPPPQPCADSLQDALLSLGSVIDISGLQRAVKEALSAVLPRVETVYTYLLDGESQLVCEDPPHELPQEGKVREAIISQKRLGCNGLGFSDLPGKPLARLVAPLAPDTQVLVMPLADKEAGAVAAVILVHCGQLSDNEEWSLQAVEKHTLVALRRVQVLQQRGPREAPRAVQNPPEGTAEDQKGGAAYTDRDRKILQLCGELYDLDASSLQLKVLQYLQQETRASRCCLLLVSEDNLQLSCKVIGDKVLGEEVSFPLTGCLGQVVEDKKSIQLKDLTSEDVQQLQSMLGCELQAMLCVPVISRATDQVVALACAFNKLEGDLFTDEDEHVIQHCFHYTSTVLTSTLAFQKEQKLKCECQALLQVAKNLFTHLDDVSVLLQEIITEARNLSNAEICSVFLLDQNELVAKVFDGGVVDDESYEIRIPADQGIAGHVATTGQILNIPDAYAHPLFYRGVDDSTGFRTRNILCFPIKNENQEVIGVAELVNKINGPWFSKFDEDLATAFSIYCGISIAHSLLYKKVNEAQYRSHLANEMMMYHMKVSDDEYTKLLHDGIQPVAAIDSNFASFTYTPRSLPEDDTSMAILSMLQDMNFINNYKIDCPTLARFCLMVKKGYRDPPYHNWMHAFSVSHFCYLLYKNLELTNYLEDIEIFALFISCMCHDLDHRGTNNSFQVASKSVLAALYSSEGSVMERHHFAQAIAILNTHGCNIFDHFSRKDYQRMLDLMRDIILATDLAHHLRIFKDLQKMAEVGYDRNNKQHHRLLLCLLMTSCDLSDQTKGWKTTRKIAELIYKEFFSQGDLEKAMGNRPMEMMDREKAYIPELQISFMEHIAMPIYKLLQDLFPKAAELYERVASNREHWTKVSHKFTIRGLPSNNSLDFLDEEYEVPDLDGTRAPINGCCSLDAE

In the case of `Oc1ccc(/C=C/c2cc(O)cc(O)c2)cc1` [resveratrol, Resveratrol], the IC50 was 8.7 ± 1.1 µM in [1]; above 100 µM in series [2]; 12.7 ± 2.1 µM in series [3]; 18.8 µM in series [4]; above 100 µM in series [5].

`Oc1ccc(-c2cc(-c3cc(O)cc(O)c3)n[nH]2)cc1` [RES003, 5-[5-(4-Hydroxyphenyl)-1H-pyrazol-3-yl]benzene-1,3-diol]: the IC50 was 92.6 ± 8.3 µM in series [1]; above 100 µM in [2]; above 100 µM in [3]; 0.87 µM in series [4]; above 100 µM in series [5]. For the same compound, the “selectivity for PDE4 over PDE1, PDE2, PDE3 and PDE5” value in series [4] (ratio of IC50 values) is above 100 fold. Moreover, the “consumption of sugar water (sucrose preference)” value in series [6] is “significantly increase the consumption of sugar water”. For the same compound, in series [7], the “locomotor activity (line crossings in 10 min)” value is on record as “did not affect the locomotor activity”. In addition, the “ratio of pCREB/CREB in brain tissue” value in series [8] was “reversed”. Further, the “BDNF expression in brain tissue” value in series [9] was “significantly upregulated”.

`CNCCC(Oc1ccc(C(F)(F)F)cc1)c1ccccc1` (stereo not shown) [fluoxetine, Fluoxetine, reference compound]: the “immobility time in forced swimming test” value in [10] is “significant anti-depressant-like effects”.
